The record followed here is patent US8022061B2, “N-aryl pyrazole compounds, compositions, and methods for their use” (Amgen Inc., priority 2006, dated 2011).

The test system of assay [1] is glucose-challenged animal models of diabetes. Description: Glucose-challenged animal models of diabetes, circulating insulin (FIG. 1). Type of assay: in vivo. As to conditions: glucose challenge, treated animals relative to control animals. On the procedure: The following example describes how compounds can be evaluated in vivo in glucose-challenged animal models.
Art-recognized animal models of diabetes, such as type 2 diabetes, include diet-induced obese C57BL/6 (“B6”) mice and ob/ob mice. See, e.g., Breyer et al., J. Am. Soc. Nephrol. 16:27-45 (2005) and references cited therein.
Rats (aged 5-20) weeks or mice (aged 6-20 weeks) are fasted overnight beginning at 4 pm. Between 9 and 10 am, glucose levels are determined with a glucometer using whole blood samples removed from the tail. The animals are placed into control and treatment groups having similar averages of glucose levels and body weights or similar averages of body weights (B6 mice). Animals are pre-dosed with vehicle (control group) or test article (5-10 mL/kg, p.o., s.c. or i.p.) and then challenged with glucose (1 g/kg, p.o. or i.p.). Blood samples are then collected from the tail and assay for glucose and insulin levels.

The test system of a further assay is ob/ob mice. Description: Increase of circulating insulin concentrations in treated ob/ob mice. Type of assay: in vivo. The settings on record: male ob/ob mice, dose 10 mg/kg p.o., 10 minutes after dosing, relative to control group. The method, then:
The results presented below exemplify that administration of the compounds as provided herein to an art-recognized animal model of human diabetes can lead to increased circulating insulin concentrations in the animal model.
Male ob/ob mice were weighed and bled from tail vein, and blood glucose levels were determined with a glucometer. Animals were placed into control and treatment groups having similar averages of glucose levels and body weights. In the morning of the following day, animals were dosed with vehicle (control group) or test article (5 ml/kg, p.o.). Blood samples were collected just before and 10 minutes after dosing, and the samples were assayed for insulin and glucose concentrations.
Table 1 provides exemplary data showing the increase of circulating insulin concentrations (expressed as ng/ml) in treated mice relative to control group at 10 minutes after dosing the treated mice. Concentrations of the exemplary compound tested in the mice are provided in the righthand column.

As for `CCCc1c(C(=O)NC(C)c2ccncc2)cnn1-c1ncc(C)c(-c2cccs2)n1` (centres unmarked) [1-[5-Methyl-4-(2-thienyl)pyrimidin-2-yl]-5-propyl-N-(1-pyridin-4-ylethyl)-1H-pyrazole-4-carboxamide], the circulating insulin levels entry in assay [1] is given as “increases in circulating insulin levels”. Also, the “Increase in Insulin” value with ob/ob mice came to 3.9 ng/mL.
